The values below come from US20230242830A1 (priority 2020, published 2023).

Usually IC50 stands for the midpoint of a concentration-inhibition curve.

Assay [1] addresses T1, BuChE from equine serum (eqBuChE) (Equus caballus, UniProt P81908).
T1 construct: The BuChE freeze-dried from equine serum (eqBuChE, Sigma Aldrich); purchased Sigma Aldrich; host or cells: equine serum (natural source)
Description: butyrylcholinesterase inhibition, Ellman spectrometric method. Type of assay: biochemical. The method, then: (§1) In the extent that the toxic activity of TCP especially involves its action on cholinesterases, the effect of the compounds used according to the invention, as well as comparative compounds, on two cholinesterases was studied. The concentration values of each compound required to inhibit 50% of the activity of two cholinesterases were measured. The higher the 50% inhibitory concentration (IC50), the less the compound is neurotoxic since it has a weaker action on the cholinesterase.
(§2) The inhibitory capacity of the compounds on the acetylcholinesterase (AChE) and butyrylcholinesterase (BuChE) biological activity was assessed using the spectrometric method of Ellman (Ellman et al., Biochem. Pharm. 1961, 7, 88-95).
(§3) The acetylthiocholine and butyrylthiocholine iodide, and 5,5-dithiobis (2-nitrobenzoic) acid (DTNB) were purchased from Sigma Aldrich (Steinheim, Germany).
(§4) The BuChE freeze-dried from equine serum (eqBuChE, Sigma Aldrich) was dissolved in 0.1 M phosphate buffer (pH 7.4) to obtain enzyme stock solutions with an enzymatic activity of 2.5 units/mL. The human erythrocyte AChE (hAChE, aqueous buffer solution, ≥500 units/mg of protein (BCA), Sigma Aldrich) was diluted in 20 mM HEPES buffer, pH 8, with 0.1% Triton X-100 to obtain enzymatic solution with an enzymatic activity of 0.25 unit/mL.
(§5) In the procedure, 100 µL of 0.3 mM DTNB dissolved in phosphate buffer, pH 7.4, were added in 96-well plates, followed by 50 µL solution of the test compound and 50 µL enzyme (final 0.05 U). After 5 minutes of pre-incubation at 25° C., the reaction was initiated by injecting 50 µL of 0.1 mM acetyl or butyryl thiocholine iodide solution. The acetyl or butyryl thiocholine hydrolysis was followed by the formation of yellow 5-thio 2-nitrobenzoate anion as the product of the reaction of DTNB with the thiocholine released by the enzymatic hydrolysis of the acetyl or butyryl thiocholine, at a wavelength of 412 nm, using a microplate reader (Synergy 2, Biotek, Colmar, France). The compounds to be tested were dissolved to 5×10^-3 M in analytical grade DMSO. Donepezil or tacrine were used as reference standards. The absorption increase rate at 412 nm was determined 4 minutes after the addition of the acetyl or butyryl thiocholine iodide solution. The tests were carried out with a blank containing all the compounds except the acetyl or butyryl thiocholine in order to take into account non-enzymatic reactions.
(§6) The percentage of inhibition due to the presence of the test compounds was calculated using the following expression: […]
(§7) wherein vi is the rate calculated in the presence of the inhibitor, and v0 is the enzymatic activity.
(§8) IC50 values were graphically determined by plotting the percentage of inhibition as a function of the logarithm of six inhibitor concentrations in the test solution using the GraphPadPrism software (version 6.01, GraphPad Software, La Jolla, Calif., USA). All the experiments were carried out in n=3.
(DTNB colorimetry detects thiols as they appear.)

Assay [2] concerns the target T2, human erythrocyte AChE (hAChE) (Homo sapiens, UniProt P22303).
T2 construct: The human erythrocyte AChE (hAChE, aqueous buffer solution); purchased Sigma Aldrich; host or cells: human erythrocytes (natural source)
Description: acetylcholinesterase inhibition, Ellman spectrometric method. Type of assay: biochemical. The method, then:
as §1, §2, §3, §4, §5, §6, §7, §8

T1 sequence (P81908 whole entry): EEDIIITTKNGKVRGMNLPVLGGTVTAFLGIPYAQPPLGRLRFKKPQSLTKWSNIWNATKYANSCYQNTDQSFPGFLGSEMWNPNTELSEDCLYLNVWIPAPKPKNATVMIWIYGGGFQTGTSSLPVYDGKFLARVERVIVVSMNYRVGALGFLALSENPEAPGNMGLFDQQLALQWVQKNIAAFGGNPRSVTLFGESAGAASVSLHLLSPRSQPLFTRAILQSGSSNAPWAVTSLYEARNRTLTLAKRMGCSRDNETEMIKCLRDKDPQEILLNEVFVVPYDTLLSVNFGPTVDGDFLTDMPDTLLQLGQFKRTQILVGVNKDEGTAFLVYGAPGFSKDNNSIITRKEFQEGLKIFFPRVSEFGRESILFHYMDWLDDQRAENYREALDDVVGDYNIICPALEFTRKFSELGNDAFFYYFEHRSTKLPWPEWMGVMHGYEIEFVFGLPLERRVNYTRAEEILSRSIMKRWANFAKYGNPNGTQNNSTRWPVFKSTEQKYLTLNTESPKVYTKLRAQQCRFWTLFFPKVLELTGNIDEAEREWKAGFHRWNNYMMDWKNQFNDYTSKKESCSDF
T2 sequence (P22303 32-617 isoform P22303-2 limits assumed): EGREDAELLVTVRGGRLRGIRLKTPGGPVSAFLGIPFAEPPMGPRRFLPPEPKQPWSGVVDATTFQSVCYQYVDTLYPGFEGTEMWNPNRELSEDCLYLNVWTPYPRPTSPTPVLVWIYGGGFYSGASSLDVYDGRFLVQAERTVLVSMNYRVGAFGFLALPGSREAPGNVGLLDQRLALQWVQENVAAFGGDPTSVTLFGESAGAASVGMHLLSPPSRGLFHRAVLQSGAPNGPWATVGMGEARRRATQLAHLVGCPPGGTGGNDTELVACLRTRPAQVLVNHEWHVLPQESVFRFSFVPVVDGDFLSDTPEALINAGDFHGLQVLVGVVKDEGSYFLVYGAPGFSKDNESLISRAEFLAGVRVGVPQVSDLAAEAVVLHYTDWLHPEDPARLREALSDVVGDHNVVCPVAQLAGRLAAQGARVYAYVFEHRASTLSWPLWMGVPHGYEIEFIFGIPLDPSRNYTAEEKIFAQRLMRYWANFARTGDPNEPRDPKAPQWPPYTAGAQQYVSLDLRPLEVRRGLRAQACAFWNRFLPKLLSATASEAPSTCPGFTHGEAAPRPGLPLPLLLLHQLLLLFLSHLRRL

`O=P(Oc1ccccc1)(Oc1ccccc1)Oc1ccc(OP(=O)(Oc2ccccc2)Oc2ccccc2)c(-c2ccccc2)c1` [Compound 11, phenylhydroquinone bis(diphenylphosphate)]: the results for the IC50 in assay [1] and in assay [2] were 25.8 µM and 35.5 µM, respectively. For `CC(C)(C)c1cc(OP(=O)(Oc2ccccc2)Oc2ccccc2)ccc1OP(=O)(Oc1ccccc1)Oc1ccccc1` [Compound 12, tert-butyl hydroquinone bis(diphenylphosphate)], in that order: 104 µM and 23.8 µM. In the case of `CC(C)(C)c1cc(OP(=O)(Oc2ccccc2)Oc2ccccc2)c(C(C)(C)C)cc1OP(=O)(Oc1ccccc1)Oc1ccccc1` [Compound 13, 2,5-di-tert-butyl hydroquinone bis(diphenylphosphate)], the IC50 was 111 µM in assay [1] and 27.1 µM in assay [2]. Consider `O=P(Oc1ccccc1)(Oc1ccccc1)Oc1ccc(OP(=O)(Oc2ccccc2)Oc2ccccc2)c2ccccc12` [Compound 14, 1,4-dihydroxynaphthalene bis(diphenylphosphate)], for which the figures for the 50% inhibitory concentration (IC50) in assay [1] and in assay [2] were 127 µM and 27.4 µM, respectively. Taken in the same sequence, the figures for `O=P(Oc1ccccc1)(Oc1ccccc1)Oc1ccc2ccc(OP(=O)(Oc3ccccc3)Oc3ccccc3)cc2c1` [Compound 15, 2,7-dihydroxynaphthalene bis(diphenylphosphate)] were 90.1 µM and 28.8 µM.

On to `O=C(c1ccc(OP(=O)(Oc2ccccc2)Oc2ccccc2)cc1)c1ccc(OP(=O)(Oc2ccccc2)Oc2ccccc2)cc1` [Compound 16, 4,4′-dihydroxybenzophenone bis(diphenylphosphate)], for which the results for the IC50 in assay [1] and in assay [2] were 164 µM and 39.8 µM, respectively. Taken in the same sequence, the figures for `O=P(Oc1ccccc1)(Oc1ccccc1)Oc1ccc(S(=O)(=O)c2ccc(OP(=O)(Oc3ccccc3)Oc3ccccc3)cc2)cc1` [Compound 17, bis(4-dihydroxyphenyl)sulfone bis(diphenylphosphate)] were 96.4 µM and 30.2 µM. For `O=P(Oc1ccccc1)(Oc1ccccc1)Oc1ccc(C(c2ccc(OP(=O)(Oc3ccccc3)Oc3ccccc3)cc2)(C(F)(F)F)C(F)(F)F)cc1` [Compound 18], in that order: 141 µM and 34 µM. As for `CC(c1ccccc1)(c1ccc(OP(=O)(Oc2ccccc2)Oc2ccccc2)cc1)c1ccc(OP(=O)(Oc2ccccc2)Oc2ccccc2)cc1` [Compound 19, 4,4′-(α-methylbenzylidene)bisphenol bis(diphenylphosphate)], the results for the half-maximal inhibitory concentration (IC50) in assay [1] and in assay [2] were 147 µM and 46 µM, respectively. Taken in the same sequence, the figures for `O=P(Oc1ccccc1)(Oc1ccccc1)Oc1ccc(C2(c3ccc(OP(=O)(Oc4ccccc4)Oc4ccccc4)cc3)CCCCC2)cc1` [Compound 20, 1,1-bis-(4-hydroxyphenyl)cyclohexane bis(diphenylphosphate)] were 399 µM and 35.5 µM. For `O=P(Oc1ccccc1)(Oc1ccccc1)Oc1ccc(C2(c3ccc(OP(=O)(Oc4ccccc4)Oc4ccccc4)cc3)c3ccccc3-c3ccccc32)cc1` [Compound 21, 9,9-bis(4-hydroxyphenyl)fluorene bis(diphenylphosphate)], in that order: 106 µM and 29.6 µM. Take `CC(c1ccc(OP(=O)(Oc2ccccc2)Oc2ccccc2)cc1)(c1ccc(OP(=O)(Oc2ccccc2)Oc2ccccc2)cc1)c1ccc(OP(=O)(Oc2ccccc2)Oc2ccccc2)cc1` [Compound 23, 1,1,1-Tris(4-hydroxyphenyl)ethane tris(diphenylphosphate)]: the IC50 was 70.9 µM in assay [1] and 19.8 µM in assay [2]. As to `CC(C)(C)c1ccc(OP(=O)(Oc2ccc(C(C)(C)C)cc2)Oc2ccc(C(C)(C)C)cc2)cc1` [Compound I2, Tri(p-tert-butylphenyl)phosphate, reference compound], the “inhibition on butyrylcholinesterase / lC50 for eqBuChE, in words” value in assay [1] is listed as “reduced inhibition”.

Consider `O=P(Oc1ccccc1)(Oc1ccccc1)Oc1cc(OP(=O)(Oc2ccccc2)Oc2ccccc2)c2ccccc2c1` [X, 1,3-dihydroxynaphthalene bis(diphenylphosphate), reference compound], for which the concentration for half-maximal inhibition (IC50) in assay [1] was 7.21 µM; in assay [2], 26.4 µM. For `O=P(Oc1ccccc1)(Oc1ccccc1)Oc1ccc(OP(=O)(Oc2ccccc2)Oc2ccccc2)c(Cl)c1` [Y, 2-chlorohydroquinone bis(diphenylphosphate), reference compound], in that order: 1 µM and 41.1 µM.

With `CC(=O)c1cc(OP(=O)(Oc2ccccc2)Oc2ccccc2)ccc1OP(=O)(Oc1ccccc1)Oc1ccccc1` [Z, (2,5-dihydroxy)1-acetophenone bis(diphenylphosphate), reference compound], the 50% inhibitory concentration (IC50) was 0.114 µM in assay [1] and 29.8 µM in assay [2]. With “dimer diol (C34-36) bis(diphenylphosphate) [Compound 22]”, the “lC50 eqBuChE” value in assay [1] (Table 1, n=3) was found to be 88.3 mg/L. For the same compound, the “lC50 hAChE” value in assay [2] (Table 1, n=3) amounted to 15.6 mq/L.
